In paper PMC12772312, “The MAB_3513c gene plays a key role in intrinsic resistance of Mycobacterium abscessus to isoniazid and ethionamide” (Microbiology Spectrum, 2025):

Experiments:
[1] = target: T1, NudC (NudC^Mab; MAB_3513c) (Mycobacteroides abscessus, UniProt A0A0U1C370); experiment: HPLC/MS of metabolite extracts, wild type versus nudC deletion strain; format: cell-based; details: adduct formed in cells from ethionamide (256 ug/mL, 3 h, 37 C); no purified enzyme assay
T1 construct: native full-length protein in M. abscessus cells, compared with isogenic nudC deletion; functional homodimer

[2] = target: the molecule itself; experiment: SEC; HiLoad 16/600 Superdex 75 pg, 20 mM Tris-HCl (pH 7.5), 150 mM NaCl, 1 mM 1,4-dithiothreitol, 4°C, 1 mL/min; retention times compared to molecular weight standards

Molecule	HPLC/MS of metabolite extracts, wild type versus nudC deletion strain [1]	stoichiometry N [2]
CCc1cc(C(=O)C2C=CN([C@@H]3O[C@H](COP(=O)(O)OP(=O)(O)OC[C@H]4O[C@@H](n5cnc6c(N)ncnc65)[C@H](O)[C@@H]4O)[C@@H](O)[C@H]3O)C=C2C(N)=O)ccn1 (some centres unmarked) [ETH-NAD adduct]	nudC encodes a functional NudC that hydrolyzes ETH-NAD adduct	
Mycobacterium abscessus NADH pyrophosphatase NudC (MAB_3513c), wild type (enzyme, NADH pyrophosphatase NudC of Mycobacterium abscessus, gene MAB_3513c (nudC); The strain used in the study is M. abscessus subsp. abscessus GZ002 (genome GenBank CP034181); also called Wt NudC; source: E. coli BL21 (λDE3), pET-28a, purified (his-tag protein purification kit)) MTFRLRNIPLLSRVGLDRADELRSNPEELAKGWAEAGLITLDVRGRVNIVDGQVVIEDAARIGDQPPEHAVFLGRIPGGRHVWAVRADLDEDSAPLLDLRRSGQLFDDTSAALLATAMAMLAWHDNAGYSPVDGSPTIPAKGGWVRVNSATGQEEFPRTDPAIICLVHDGGDRAVLGRQKFWPERMFSLLAGFVEAGESLEACVAREVAEEVGLTVTDVQYLGSQPWPFPRSIMLGFHAIGDPSQPFAFNDGEIAEADWFTRAEVRSALEAGDWTTASDSRLMLPGSISIAREIVESWAYAGEEPPAGRP		2
